Measurements as given in publication PMC10439952, “JT002, a small molecule inhibitor of the NLRP3 inflammasome for the treatment of autoinflammatory disorders” (Scientific Reports, 2023).
Entries after “also recorded” stand apart in the source; their conditions may differ.

Legend:
NLRP3 inflammasome [1] = molecular target: NLRP3 inflammasome (Homo sapiens, UniProt Q96P20); test: Inhibition of IL-1β production in LPS stimulated (alternative pathway) human whole blood; assay type: cell-based
Experimental: Inflammasome activation and whole blood assays were essentially carried out as described earlier. Details can be found in the supplementary information section accompanying this publication. A protocol for blood draws from healthy volunteers and use of the blood in preclinical assays was approved by Western Institutional Review Board, Inc (Puyallup, WA, USA). Informed consent was obtained from each donor prior to the first blood draw.
Cell viability was determined by addition of an equal volume of CellTiter-Glo® 2.0 reagent (Promega) to the remaining cells/supernatant in each well. Intracellular Caspase-1 activity was measured using the Caspase-Glo® assay (Promega) according to the manufacturer’s instructions. The biochemical capsase-1 assay was conducted at Reaction Biology Corporation (Malvern, USA). Human IL-1β, IL-1α, and TNFα and mouse IL-1β were measured in cell culture supernatants using homogeneous time resolved fluorescence assay kits (HTRF, Cisbio, Codolet, France). Human IL-18 was measured in cell culture supernatants using an ELISA kit (R&D Systems, Minneapolis, MN, USA). Plasma IL-1β concentrations were determined by Quantikine® ELISA (R&D Systems, Minneapolis, MN). […]
flagellin, prepared in Opt iMEM and combined with Lipofectamine 2000. […]

NLRP3 inflammasome [2] = molecular target: NLRP3 inflammasome (Mus musculus, UniProt Q8R4B8); test: In vivo target engagement: ex vivo LPS + ATP stimulated IL-1β production in blood of orally dosed mice; details: single oral dose 25 mg/kg
NLRP3 inflammasome (Mus musculus, UniProt Q8R4B8), sequence (Q8R4B8 whole entry): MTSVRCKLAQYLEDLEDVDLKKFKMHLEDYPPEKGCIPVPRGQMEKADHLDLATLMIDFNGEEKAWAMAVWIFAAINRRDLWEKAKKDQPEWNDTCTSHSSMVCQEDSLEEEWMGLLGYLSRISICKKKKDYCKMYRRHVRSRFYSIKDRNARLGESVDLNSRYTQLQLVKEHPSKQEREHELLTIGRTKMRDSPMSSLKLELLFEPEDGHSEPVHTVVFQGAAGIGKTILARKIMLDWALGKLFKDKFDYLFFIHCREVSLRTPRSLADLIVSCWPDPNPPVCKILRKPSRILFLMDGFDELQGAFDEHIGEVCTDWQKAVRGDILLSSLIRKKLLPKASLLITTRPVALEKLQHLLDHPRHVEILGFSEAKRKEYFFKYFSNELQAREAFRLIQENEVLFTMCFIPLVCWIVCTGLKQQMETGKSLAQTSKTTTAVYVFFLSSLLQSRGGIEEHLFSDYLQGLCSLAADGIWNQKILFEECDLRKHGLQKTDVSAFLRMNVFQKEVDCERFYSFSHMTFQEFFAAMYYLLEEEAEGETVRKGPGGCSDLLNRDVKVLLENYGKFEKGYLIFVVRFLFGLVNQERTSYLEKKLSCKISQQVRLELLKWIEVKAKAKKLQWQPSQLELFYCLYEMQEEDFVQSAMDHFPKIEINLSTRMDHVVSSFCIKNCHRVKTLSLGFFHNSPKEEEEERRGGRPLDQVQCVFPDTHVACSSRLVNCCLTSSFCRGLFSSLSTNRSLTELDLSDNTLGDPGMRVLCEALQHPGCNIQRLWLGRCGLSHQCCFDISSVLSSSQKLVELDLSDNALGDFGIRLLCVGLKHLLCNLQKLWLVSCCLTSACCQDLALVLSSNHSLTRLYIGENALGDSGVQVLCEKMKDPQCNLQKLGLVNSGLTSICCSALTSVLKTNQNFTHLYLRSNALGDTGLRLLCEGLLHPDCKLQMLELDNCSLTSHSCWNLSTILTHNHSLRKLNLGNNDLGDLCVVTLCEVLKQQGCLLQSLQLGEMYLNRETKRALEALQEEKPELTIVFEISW
Experimental: In vivo pharmacodynamics (PD) were evaluated in mice for determination of target engagement as this species is routinely used for assessment of preclinical efficacy. Treatment of fresh, whole blood with LPS plus ATP results in the NLRP3-dependent release of IL-1β, thus providing a robust method for tracking target engagement of NLRP3 inflammasome inhibitors in the circulation after oral dose administration[36],[47]. In vivo target engagement using ex vivo stimulation of blood was evaluated in mice at various times after oral dosing of JT002. For each time point tested, one group of mice received a single oral dose of 25 mg/kg JT002 (n = 8/group) and another group received the vehicle control (n = 8/group). At the time of harvest, blood was collected from each animal and an aliquot removed and processed to plasma for determination of JT002 concentrations. The remaining blood was stimulated ex vivo with LPS plus ATP followed by analysis of IL-1β concentrations (Fig. 3A). […] Consistent with these findings, plasma concentrations of JT002 decreased over time, with mean concentrations of ≥ 4.0 µM through 8 h and a mean concentration of 6 nM at the 24-h sampling (Fig. 3C,D). […]

[3] = Pharmacokinetics in male Sprague–Dawley rats after i.v. and p.o. administration; assay type: in vivo
Experimental: The pharmacokinetics (PK) of JT002 were assessed in male Sprague–Dawley rats and male Beagle dogs after intravenous (i.v.) and oral (p.o.) administration (Table 2). […] In dogs, a maximum drug plasma concentration (Cmax) of 4.0 µg/mL (9 µM) was reached 1 h after a single 1 mg oral dose. Dose-adjusted exposures (dose-adjusted AUC) from oral administration were close to identical between rat and dog (11.8 versus 11.6) (Table 2).

[4] = Rat, single 5 mg oral dose, sodium salt form
[5] = male, Sprague-Dawley, plasma, iv, Rat, 1 mg/kg
[6] = male, Sprague-Dawley, plasma, po, Rat, 5 mg/kg

NLRP3 inflammasome (Homo sapiens, UniProt Q96P20), sequence (Q96P20 whole entry): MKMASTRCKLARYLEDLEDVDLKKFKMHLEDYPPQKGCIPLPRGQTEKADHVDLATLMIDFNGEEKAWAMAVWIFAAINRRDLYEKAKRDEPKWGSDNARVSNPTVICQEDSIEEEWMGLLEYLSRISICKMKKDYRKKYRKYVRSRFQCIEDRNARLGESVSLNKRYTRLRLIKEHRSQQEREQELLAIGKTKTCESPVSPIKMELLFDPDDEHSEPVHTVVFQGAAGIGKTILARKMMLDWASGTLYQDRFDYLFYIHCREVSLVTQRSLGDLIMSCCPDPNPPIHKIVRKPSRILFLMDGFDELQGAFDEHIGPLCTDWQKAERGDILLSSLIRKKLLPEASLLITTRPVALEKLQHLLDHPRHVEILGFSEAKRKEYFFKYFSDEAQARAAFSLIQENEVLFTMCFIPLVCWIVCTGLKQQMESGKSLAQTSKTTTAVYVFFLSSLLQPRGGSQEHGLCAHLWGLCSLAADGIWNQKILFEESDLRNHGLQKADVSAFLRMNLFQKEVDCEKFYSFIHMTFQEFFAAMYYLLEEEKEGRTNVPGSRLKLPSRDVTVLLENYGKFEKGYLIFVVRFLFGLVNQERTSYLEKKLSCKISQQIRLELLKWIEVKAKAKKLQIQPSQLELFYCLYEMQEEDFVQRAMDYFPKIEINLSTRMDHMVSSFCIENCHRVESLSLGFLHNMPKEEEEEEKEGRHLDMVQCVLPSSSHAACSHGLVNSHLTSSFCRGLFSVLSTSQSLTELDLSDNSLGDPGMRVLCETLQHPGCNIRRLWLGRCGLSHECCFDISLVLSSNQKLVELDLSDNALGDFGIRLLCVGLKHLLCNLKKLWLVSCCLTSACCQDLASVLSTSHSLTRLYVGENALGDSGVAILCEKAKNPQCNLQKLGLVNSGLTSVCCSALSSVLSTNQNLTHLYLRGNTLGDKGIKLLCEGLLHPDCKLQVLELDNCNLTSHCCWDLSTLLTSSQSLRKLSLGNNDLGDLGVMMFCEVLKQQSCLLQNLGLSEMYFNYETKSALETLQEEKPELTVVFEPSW

- IC50 (NLRP3 inflammasome [1]; Human whole blood, LPS only (alternative pathway), read-out: Geo Av IC50, IL-1β): 32 nM
- IC50 in human whole blood, alternative (LPS) versus canonical (LPS + ATP) NLRP3 pathway activation (NLRP3 inflammasome [1]; how much lower the alternative pathway IC50 is): threefold more potent
- inhibition at 25 mg/kg (NLRP3 inflammasome [2]; mouse, 4- and 8-h post-dosing): ≥ 97%
- %F (oral bioavailability) ([3]; Rat, p.o., 5 mg/kg, sodium salt form): 73.2%
- maximum plasma concentration [3, 4]: 36 µM
- time of maximum plasma concentration [3, 4]: thirty
- AUC [3, 5]: 16200 ng·h/mL
- Cmax [3, 5]: 10600 ng/mL
- half-life [3, 5]: 2.8 h
- clearance ([3]; male, Sprague-Dawley, plasma, iv, Rat, i.v., 1 mg/kg, read-out: Clpl (plasma clearance)): 1 mL/min/kg
- Vd ([3]; male, Sprague-Dawley, plasma, iv, Rat, i.v., 1 mg/kg, read-out: Vss): 0.2 L/kg
- AUC [3, 6]: 59200 ng·h/mL
- Cmax [3, 6]: 15600 ng/mL
- half-life [3, 6]: 3.4 h
- Tmax ([3]; male, Sprague-Dawley, plasma, po, Rat, 5 mg/kg, median): 0.5 h
- bioavailability ([3]; male, Sprague-Dawley, rat, plasma, po, 5 mg/kg, p.o., 5 mg/kg, sodium salt form, read-out: %F (oral bioavailability)): 73%
Structure (SMILES): CO[C@@H]1COc2c(S(=O)(=O)NC(=O)Nc3c4c(cc5c3CCC5)CCC4)cnn2C1 [JT002]
- inhibition of ex vivo stimulated IL-1β production (NLRP3 inflammasome [2]; 24-h post-dosing, 25 mg/kg): no significant inhibition; also recorded: lack of inhibition
